The values that follow come from patent US12691107B2, “Methods for the treatment and prevention of lung infections caused by gram-positive bacteria, fungus, or virus by administration of tafenoquine” (priority 2020, dated 2026).

A word on the EC50: it is the concentration that produces a half-maximal response. The low end stands for an effect from little substance, the high end for a need for much substance.

Like-named read-outs stand apart in the source and are kept apart here.

Data set [1] concerns HCMV strain AD169. The data set can be described thus: CPE assay for HCMV in HFF cells. To be noted: Human betaherpesvirus 5, AD169. The class given is cell-based.
For data set [2] the following is noted: in vivo, cited from earlier work.
Data set [3] deals with Pneumocystis. The data set can be described thus: Pneumocystis in vitro (Bartlett et al., 1991). The format is cell-based. To be noted: read-out: equivalent MIC in the absence of protein. From the text:
Therefore, the minimum inhibitory concentration in vitro is approximately 10 microgram/ml.

In data set [4] the test system is MCMV strain Smith. Briefly: MCMV qPCR assay in mouse embryo fibroblast cells. The format is cell-based. To be noted: 168 h, 7 d.
Data set [5] deals with SARS-CoV-2. The data set can be described thus: microbe, parasite or virus in culture. The class given is cell-based. To be noted: Severe acute respiratory syndrome coronavirus 2, Vero C1008; Vero E6, moi 0.05, 48 hours, TCID50.
Data set [6] relates to Histoplasma capsulatum. Briefly: microbe, parasite or virus in culture. The class given is cell-based.
In data set [7] the test system is Apophysomyces sp. The data set can be described thus: Antifungal MIC (RPMI-1640 microdilution). The format is cell-based.
For data set [8], the system named is A. baumannii. The data set can be described thus: Antibacterial MIC (broth microdilution). The class given is cell-based. To be noted: Acinetobacter baumannii. (In broth dilution the organism is exposed to a series of concentrations in liquid medium.)
Data set [9] concerns Candida glabrata. Briefly: Antifungal MIC (RPMI-1640 microdilution). The format is cell-based.
The subject of data set [10] is Rhizopus arrhizus. Briefly: Antifungal MIC (RPMI-1640 microdilution). The format is cell-based.
For data set [11], the system named is Altenaria sp. Briefly: Antifungal MIC (RPMI-1640 microdilution). The class given is cell-based. To be noted: isolate Alt1.
The subject of data set [12] is Exserohilum sp. The data set can be described thus: Antifungal MIC (RPMI-1640 microdilution). The class given is cell-based.

Regarding `COc1cc(C)c2c(Oc3cccc(C(F)(F)F)c3)c(OC)cc(NC(C)CCCN)c2n1` (stereo not shown) [Tafenoquine, N(4)-[2,6-Dimethoxy-4-methyl-5-[3-(trifluoromethyl)phenoxy]quinolin-8-yl]pentane-1,4-diamine], the EC50 in data set [1] is over 6 µM. The “Cmax of a single dose of 200 mg” value in data set [2] (200 mg) is “[147 ng/ml *4.4]”. In addition, in [2], the “Cmax following a single dose” value was “approximately 90 nanogram/ml”, the “dose proportionality of pharmacokinetics” value was “proportional with the dose administered in the therapeutic range”, the “steady state Cmax” value is 300 nanogram/ml and the “steady state concentrations in 95% of individuals” value is recorded as “above 80 nanogram/ml”. The MIC in data set [3] stood at 5 µg/mL. The half-maximal effective concentration (EC50) in data set [4] is over 6 µM. Besides, the midpoint of the response in data set [5], the EC50, lay at 2.6 µM.

Consider `COc1cc(C)c2c(Oc3cccc(C(F)(F)F)c3)c(OC)cc(NC(C)CCCN)c2n1.O=C(O)CCC(=O)O` (stereo not shown) [Tafenoquine Succinate], for which the MIC50 came to 4 µg/mL in [6] (read-out: MIC 50% inhibition, isolate HC1); 2 µg/mL in data set [6] (read-out: MIC 50% inhibition, isolate HC2); 8 µg/mL in data set [6] (read-out: MIC 50% inhibition, isolate HC3); 8 µg/mL in data set [7] (read-out: MIC 50% inhibition, isolate Apo1); 2 µg/mL in data set [7] (read-out: MIC 50% inhibition, isolate Apo2); 16 µg/mL in [7] (read-out: MIC 50% inhibition, isolate Apo3). In addition, the MIC50 in data set [9] (Nakaseomyces glabratus, read-out: MIC 50% inhibition, isolate 05-62) came to 8 µg/mL; in data set [9] (Nakaseomyces glabratus, read-out: MIC 50% inhibition, isolate 05-761), 8 µg/mL; in data set [9] (Nakaseomyces glabratus, read-out: MIC 50% inhibition, isolate CG3), 8 µg/mL; in data set [10] (read-out: MIC 50% inhibition, isolate 99-880) it was 4 µg/mL; in [10] (read-out: MIC 50% inhibition, isolate 99-892), 4 µg/mL; in [10] (read-out: MIC 50% inhibition, isolate RAI), 8 µg/mL. The MIC50 in [11] (read-out: MIC 50% inhibition) was 2 µg/mL; in [12] (read-out: MIC 50% inhibition, isolate Exser1) it was 4 µg/mL. Besides, the MIC in data set [6] (read-out: MIC 100% inhibition, isolate HC1) came out at 4 µg/mL; in data set [6] (read-out: MIC 100% inhibition, isolate HC2), 4 µg/mL; in [6] (read-out: MIC 100% inhibition, isolate HC3), 8 µg/mL; in data set [7] (read-out: MIC 100% inhibition, isolate Apo1), 8 µg/mL; in [7] (read-out: MIC 100% inhibition, isolate Apo2) it was 4 µg/mL; in data set [7] (read-out: MIC 100% inhibition, isolate Apo3), 32 µg/mL. Besides, the MIC is 64 µg/mL in data set [8] (ATCC17978, isolate ATCC 17978); 64 µg/mL in [8] (isolate AR-88); over 64 µg/mL in data set [8] (isolate AR-273); 8 µg/mL in data set [9] (Nakaseomyces glabratus, read-out: MIC 100% inhibition, isolate 05-62); 4 µg/mL in data set [10] (read-out: MIC 100% inhibition, isolate 99-880); 4 µg/mL in data set [10] (read-out: MIC 100% inhibition, isolate 99-892). Moreover, the MIC in data set [10] (read-out: MIC 100% inhibition, isolate RAI) came to 16 µg/mL; in data set [11] (read-out: MIC 100% inhibition), 4 µg/mL; in data set [12] (read-out: MIC 100% inhibition, isolate Exser1), 8 µg/mL. Moreover, the “MIC 100% inhibition” value in data set [9] (isolate 05-761) and in data set [9] (isolate CG3) was 8 µg/mL in each case.
